Laboratory results: patent publication US20160281050A1, “METHODS FOR TREATING A CULTURE OF HAEMATOCOCCUS PLUVIALIS FOR CONTAMINATION USING SALT AND HYDROGEN PEROXIDE” (HELIAE DEVELOPMENT LLC, priority 2015, published 2016)
Where two headings read alike, the source gives them in different places.

Columns and labels:
[1] = system: red cyst cells of Haematococcus pluvialis (Strain 2)
Protocol: (§1) The calculated concentrations of the hydrogen peroxide doses tested were 0.0105, 0.0140, 0.0175, 0.0210, and 0.0245 mL/L. The amount of cell lysis was quantified using visual observation under a microscope after 24, 48, and 72 hours.

[2] = system: Green swimmer cells of Haematococcus pluvialis (Strain 2)
Protocol: as §1

[3] = system: Haematococcus pluvialis (Strain 1) green swimmer cells; conditions: for % Lysis: samples from Bioreactor #2430 48 hours after transfer
Protocol: A series of experiments were conducted to determine if treating a culture of Haematococcus pluvialis with hydrogen peroxide prevents lysis.

[4] = dosed 0.015 mL/L; carboy and open raceway pond samples
[5] = 0.0140 mL/L three times per day, 24 h
[6] = 0.0140 mL/L three times per day, 48 h
[7] = 0.0140 mL/L three times per day, 72 h
[8] = 0.0175 mL/L three times per day, 24 h
[9] = 0.0175 mL/L three times per day, 48 h
[10] = 0.0175 mL/L three times per day, 72 h
[11] = 0.0210 mL/L three times per day, 24 h
[12] = 0.0210 mL/L three times per day, 48 h
[13] = 0.0210 mL/L three times per day, 72 h
[14] = 0.0245 mL/L three times per day, 24 h
[15] = 0.0245 mL/L three times per day, 48 h
[16] = 0.0245 mL/L three times per day, 72 h

Excerpt for chytrids: Culture samples of Haematococcus pluvialis (Strain 2) were collected on the second day of the culture from open raceway bioreactor #2430 operating in conditions: reactor volume of 170,000 L; Daily PAR not measured; pH of 7.3; and paddlewheel speed of 70. The culture samples were distributed into flasks for culturing, consisting of duplicate untreated controls and duplicate treatments. […] Samples were taken from the flask cultures daily to quantify % lysis and % chytrid infection and cell dry weight was quantified every other day for a duration of 11 days.

With hydrogen peroxide [H2O2] the “% Cell lysis (±1SE)” value [1, 5] was 1.7% ± 1.0%, the “% Cell lysis (±1SE)” value [1, 6] was 0.8% ± 0.8% and the “% Cell lysis (±1SE)” value [1, 7] was 3.3% ± 0.0%. The “% Cell lysis (±1SE)” value ([1]; 0.0140 mL/L three times per day, 96 h) was 3.3% ± 1.7%, the “% Cell lysis (±1SE)” value [1, 8] was 1.1% ± 0.6% and the “% Cell lysis (±1SE)” value [1, 9] was 3.3% ± 1.7%. The “% Cell lysis (±1SE)” value [1, 10] was 5.8% ± 5.8%, the “% Cell lysis (±1SE)” value ([1]; 0.0175 mL/L three times per day, 96 h) was 5.8% ± 2.5% and the “% Cell lysis (±1SE)” value [1, 11] was 3.9% ± 2.0%. For the same substance, the “% Cell lysis (±1SE)” value [1, 12] was 0.8% ± 0.8%, the “% Cell lysis (±1SE)” value [1, 13] was 1.7% ± 0.0% and the “% Cell lysis (±1SE)” value ([1]; 0.0210 mL/L three times per day, 96 h) was 18.3% ± 1.7%. The “% Cell lysis (±1SE)” value [1, 14] was 3.9% ± 0.6%, the “% Cell lysis (±1SE)” value [1, 15] was 5.0% ± 1.7% and the “% Cell lysis (±1SE)” value [1, 16] was 9.2% ± 0.8%. For the same substance, the “% Cell lysis (±1SE)” value ([1]; 0.0245 mL/L three times per day, 96 h) was 51.7% ± 5.0%, the cell lysis level ([1]; dosages at or above 0.0175 mL/L, after 48-96 hours) was “above 10%” and the cell lysis level ([1]; dosages below 0.0175 mL/L, for at least 96 hours) was “below 10%”. For the same substance, the “% Cell lysis (±1SE)” value ([2]; 0.0105 mL/L three times per day, 24 h) was 3.3% ± 1.7%, the “% Cell lysis (±1SE)” value ([2]; 0.0105 mL/L three times per day, 48 h) was 5.0% ± 1.7% and the “% Cell lysis (±1SE)” value ([2]; 0.0105 mL/L three times per day, 72 h) was 3.3% ± 0.0%. The cell lysis level ([2]; 0.0105 mL/L, for at least 72 hours) was “below 10%”, the “% Cell lysis (±1SE)” value [2, 5] was 4.2% ± 0.8% and the “% Cell lysis (±1SE)” value [2, 6] was 5.8% ± 2.5%. For the same substance, the “% Cell lysis (±1SE)” value [2, 7] was 9.2% ± 4.2%, the “% Cell lysis (±1SE)” value [2, 8] was 2.5% ± 0.8% and the “% Cell lysis (±1SE)” value [2, 9] was 9.2% ± 2.5%. The “% Cell lysis (±1SE)” value [2, 10] was 13.3% ± 3.3%, the “% Cell lysis (±1SE)” value [2, 11] was 4.2% ± 2.5% and the “% Cell lysis (±1SE)” value [2, 12] was 6.7% ± 1.7%. For the same substance, the “% Cell lysis (±1SE)” value [2, 13] was 20.0% ± 3.3%, the cell lysis level ([2]; 0.0210 mL/L, for 48 hours) was “below 10%” and the “% Cell lysis (±1SE)” value [2, 14] was 15.0% ± 0.0%. For the same substance, the “% Cell lysis (±1SE)” value [2, 15] was 22.5% ± 0.8%, the “% Cell lysis (±1SE)” value [2, 16] was 27.5% ± 2.5% and the “lysis level with the hydrogen peroxide treatments” value ([3]; Tables 6 and 7, 0.007 mL/L three times per day) was “less than 30%”. The “% Lysis (±1SD)” value ([3]; samples from Bioreactor #2330, 0.007 mL/L three times per day, 0 h) was 8.3 ± 7.6%, the “% Lysis (±1SD)” value ([3]; samples from Bioreactor #2330, 0.007 mL/L three times per day, 24 h) was 10.0 ± 4.7% and the “% Lysis (±1SD)” value ([3]; samples from Bioreactor #2330, 0.007 mL/L three times per day, 48 h) was 12.5 ± 3.5%. For the same substance, the “% Lysis (±1SD)” value ([3]; samples from Bioreactor #2330, 0.007 mL/L three times per day, 72 h) was 0.0 ± 0.0%, the “% Lysis (±1SD)” value ([3]; samples from Bioreactor #2330, 0.007 mL/L three times per day, 120 h) was 0.8 ± 1.2% and the “% Lysis (±1SD)” value ([3]; samples from Bioreactor #2430 24 hours after transfer, 0.007 mL/L three times per day, 0 h) was 0.0 ± 0.0%. The “% Lysis (±1SD)” value ([3]; samples from Bioreactor #2430 24 hours after transfer, 0.007 mL/L three times per day, 24 h) was 7.5 ± 1.2%, the “% Lysis (±1SD)” value ([3]; samples from Bioreactor #2430 24 hours after transfer, 0.007 mL/L three times per day, 48 h) was 0.0 ± 0.0% and the “% Lysis (±1SD)” value ([3]; samples from Bioreactor #2430 24 hours after transfer, 0.007 mL/L three times per day, 96 h) was 4.1 ± 1.2%. For the same substance, the “% Lysis” value ([3]; 0.007 mL/L three times per day, 0 h) was 3.3 ± 2.9%, the “% Lysis” value ([3]; 0.007 mL/L three times per day, 24 h) was 25.0 ± 9.4% and the “% Lysis” value ([3]; 0.007 mL/L three times per day, 96 h) was 16.7 ± 4.7%. The reduction of lysis ([3]; vs control cultures, Tables 6 and 7) was 60-80%, the “time to concentration below detectable limits” value [4] was 120 min and the “time to concentration below level expected to be effective against uniflagellates (calculated concentration 0.0075 mL/L)” value [4] was 30 min. For the same substance, the “% Chytrid infection” value (chytrids; 0.0105 mL/L 1 time per day for 3 d then every other day, day 0) was 0.0 ± 0.0%, the “% Chytrid infection” value (chytrids; 0.0105 mL/L 1 time per day for 3 d then every other day, day 3) was 0.0 ± 0.0% and the “% Chytrid infection” value (chytrids; 0.0105 mL/L 1 time per day for 3 d then every other day, day 4) was 0.8 ± 1.2%. The “% Chytrid infection” value (chytrids; 0.0105 mL/L 1 time per day for 3 d then every other day, day 5) was 5.0 ± 2.4%, the “% Chytrid infection” value (chytrids; 0.0105 mL/L 1 time per day for 3 d then every other day, day 6) was 2.5 ± 1.2% and the “% Chytrid infection” value (chytrids; 0.0105 mL/L 1 time per day for 3 d then every other day, day 7) was 0.0 ± 0.0%. The “% Chytrid infection” value (chytrids; 0.0105 mL/L 1 time per day for 3 d then every other day, day 8) was 0.0 ± 0.0%, the “% Chytrid infection” value (chytrids; 0.0105 mL/L 1 time per day for 3 d then every other day, day 9) was 2.5 ± 3.5% and the “% Chytrid infection” value (chytrids; 0.0105 mL/L 1 time per day for 3 d then every other day, day 10) was 1.7 ± 2.4%. For the same substance, the “% Chytrid infection” value (chytrids; 0.0105 mL/L 1 time per day, day 0) was 0.0 ± 0.0%, the “% Chytrid infection” value (chytrids; 0.0105 mL/L 1 time per day, day 3) was 0.0 ± 0.0% and the “% Chytrid infection” value (chytrids; 0.0105 mL/L 1 time per day, day 4) was 0.8 ± 1.2%. The “% Chytrid infection” value (chytrids; 0.0105 mL/L 1 time per day, day 5) was 0.8 ± 1.2%, the “% Chytrid infection” value (chytrids; 0.0105 mL/L 1 time per day, day 6) was 1.7 ± 2.4% and the “% Chytrid infection” value (chytrids; 0.0105 mL/L 1 time per day, day 7) was 3.3 ± 0.0%. For the same substance, the “% Chytrid infection” value (chytrids; 0.0105 mL/L 1 time per day, day 8) was 0.0 ± 0.0% and the “% Chytrid infection” value (chytrids; 0.0105 mL/L 1 time per day, day 9) was 0.8 ± 1.2%.
